In US6946480B2, “Glutaminyl based DPIV inhibitors” (priority 2002, dated 2005):

Key:
[1] = biological target: T1, recombinant human prolyl oligopeptidase (POP) (Homo sapiens, UniProt P48147); test: Cross reacting enzymes - prolyl oligopeptidase; type: biochemical; conditions: concentration range 1*10^−4 M-5*10^−8 M
T1 construct: made in house; host or cells: E. coli
T1 sequence (P48147 1-710): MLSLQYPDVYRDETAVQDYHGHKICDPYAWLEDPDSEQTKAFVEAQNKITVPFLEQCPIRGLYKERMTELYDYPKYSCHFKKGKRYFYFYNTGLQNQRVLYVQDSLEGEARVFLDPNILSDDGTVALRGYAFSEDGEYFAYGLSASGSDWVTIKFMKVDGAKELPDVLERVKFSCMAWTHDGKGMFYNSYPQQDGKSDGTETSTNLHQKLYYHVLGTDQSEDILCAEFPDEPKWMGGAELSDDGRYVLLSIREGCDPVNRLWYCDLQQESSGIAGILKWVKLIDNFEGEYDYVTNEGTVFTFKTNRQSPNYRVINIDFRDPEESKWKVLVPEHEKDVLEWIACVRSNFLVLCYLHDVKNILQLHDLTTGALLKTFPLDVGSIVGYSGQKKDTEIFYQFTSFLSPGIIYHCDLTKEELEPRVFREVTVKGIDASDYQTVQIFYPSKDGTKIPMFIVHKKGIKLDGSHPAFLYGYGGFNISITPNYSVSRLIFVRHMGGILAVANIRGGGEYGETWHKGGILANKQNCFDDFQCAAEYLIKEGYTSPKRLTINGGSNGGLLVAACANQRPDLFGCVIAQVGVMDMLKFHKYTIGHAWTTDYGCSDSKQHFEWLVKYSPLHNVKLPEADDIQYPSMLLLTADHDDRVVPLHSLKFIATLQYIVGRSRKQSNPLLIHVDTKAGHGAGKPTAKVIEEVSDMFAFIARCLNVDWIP
Procedure: (§1) Glutaminyl pyrrolidine or glutaminyl thiazolidine were tested for their cross reacting potency against dipeptidyl peptidase I, prolyl oligopeptidase and prolidase.
Substrates are peptides with a molecular weight up to 3000 Da.
The enzyme used was a recombinant human prolyl oligopeptidase. Recombinant expression was performed in E. coli under standard conditions as described elsewhere in the state of the art.
100 μl glutaminyl pyrrolidine or glutaminyl thiazolidine in an concentration range of 1*10^−4 M-5*10^−8 M were admixed with 100 μl μl buffer solution (40 mM HEPES, pH7.6, 0.015% Brij, 1 mM DTT) and 20 μl POP solution. The assay mixture was pre-incubated at 30° C. for 15 min After pre-incubation, 50 μl glycylprolylprolyl-4-nitroaniline solution (0.29 mM) were added and measurement of yellow color development due to 4-nitroaniline release was performed at 30° C. and λ=405 nm for 10 min using a plate reader (sunrise, Tecan, Crailsheim, Germany).
(§2) The IC50-values were calculated using Graphit 4.0.15 (Erithacus Software, Ltd., UK).

[2] = biological target: T2, Prolidase from porcine kidney (Sus scrofa, UniProt A0A5G2QQV1); test: Cross reacting enzymes - prolidase; type: biochemical
T2 sequence (A0A5G2QQV1 1-463): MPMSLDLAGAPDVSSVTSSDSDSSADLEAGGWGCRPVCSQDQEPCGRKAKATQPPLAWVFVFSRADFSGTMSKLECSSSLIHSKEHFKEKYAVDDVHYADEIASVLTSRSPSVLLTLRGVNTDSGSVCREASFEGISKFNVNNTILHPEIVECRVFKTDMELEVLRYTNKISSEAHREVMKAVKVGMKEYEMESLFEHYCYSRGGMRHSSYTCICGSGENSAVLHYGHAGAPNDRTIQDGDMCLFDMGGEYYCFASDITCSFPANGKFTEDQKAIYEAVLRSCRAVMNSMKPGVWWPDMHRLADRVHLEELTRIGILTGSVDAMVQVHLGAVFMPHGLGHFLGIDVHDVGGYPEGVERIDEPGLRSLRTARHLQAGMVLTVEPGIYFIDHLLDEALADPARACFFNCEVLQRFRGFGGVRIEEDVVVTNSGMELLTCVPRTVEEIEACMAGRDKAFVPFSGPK
Procedure: as §1
Prolidase (EC 3.4.13.9) was first described by Bergmann & Fruton (Bergmann, M. & Fruton, J S, 1937, J. Biol. Chem. 189-202). Prolidase releases the N-terminal amino acid from Xaa-Pro dipeptides and has a pH optimum between 6 and 9.
Prolidase from porcine kidney (ICN Biomedicals, Eschwege, Germany). was solved (1 mg/ml) in assay buffer (20 mM NH4(CH3COO)2, 3 mM MnCl2, pH 7.6). In order to get a fully active enzyme the solution was incubated for 60 min at room temperature.
450 μl glutaminyl pyrrolidine or glutaminyl thiazolidine in an concentration range of 5*10^−3 M-5*10^−7 M were admixed with 500 μl buffer solution (20 mM NH4(CH3COO)2, pH 7.6) and 250 μl lle-Pro-OH (0.5 mM in the assay mixture). The assay mixture was pre-incubated at 30° C. for 5 min After pre-incubation, 75 μl Prolidase (1:10 diluted in assay buffer) were added and measurement was performed at 30° C. and λ=220 nm for 20 min using a UV/Vis photometer, UV1 (Thermo Spectronic, Cambridge, UK).
as §2

`NC(=O)CC[C@H](N)C(=O)N1CCCC1` [glutaminyl pyrrolidine] was tested, and the “inhibition of POP activity” value [1] was “no inhibition” and the “efficacy against prolidase compared to DPIV” value [2] was “marked lower efficacy”.
